Experiments:
Puccinia triticina = assay: Leaf Rust of Wheat 1-day protectant test (PUCCRT); type: in vivo; conditions: topical, 24 h, one-day protectant test, 200 ppm application rate, wheat plants (variety Yuma), read-out: PUCCRT control of disease
Procedure: The technical compounds were formulated at 200 ppm in 10 vol. acetone plus 90 vol. Triton X water (deionized water 99.99 wt. % +0.01 wt. Triton X100), giving a “formulated test compound.” The compounds were tested for ability to control plant diseases at the whole plant level in a 1-day protectant test (IDP). Formulated test compounds were applied to plants using a turn table sprayer fitted with two opposing air atomization nozzles which delivered approximately 1500 L/ha of spray volume. Plants were inoculated with spores of the fungus the next day, then incubated in an environment conducive to disease development. Disease severity was evaluated 4 to 19 days later, depending on the speed of disease development. […] Each pot contained 3-8 seedlings. These plants were sprayed until wet with the formulated test compounds at a rate of 200 ppm. On the following day, the leaves were inoculated with an aqueous spore suspension of Puccinia triticina and the plants were kept in high humidity overnight to permit spores to germinate and infect the leaf. The plants were then transferred to a greenhouse until disease developed on untreated control plants. The following table presents the activity of typical compounds of the present invention when evaluated in these experiments. The effectiveness of the test compounds in controlling disease was determined by assessing the severity of disease on treated plants, then converting the severity to percent control based on the level of disease on untreated, inoculated plants.

Cochliobolus sativus = assay: Spot Blotch of Wheat 1-day protectant test (COCHSA); type: in vivo; conditions: Bipolaris sorokiniana, 24 h; one-day protectant test, 200 ppm application rate, wheat plants (variety Yuma); read-out: COCHSA control of disease
Procedure: The technical compounds were formulated at 200 ppm in 10 vol. acetone plus 90 vol. Triton X water (deionized water 99.99 wt. % +0.01 wt. Triton X100), giving a “formulated test compound.” The compounds were tested for ability to control plant diseases at the whole plant level in a 1-day protectant test (IDP). Formulated test compounds were applied to plants using a turn table sprayer fitted with two opposing air atomization nozzles which delivered approximately 1500 L/ha of spray volume. Plants were inoculated with spores of the fungus the next day, then incubated in an environment conducive to disease development. Disease severity was evaluated 4 to 19 days later, depending on the speed of disease development. […] Each pot contained 3-8 seedlings. These plants were sprayed until wet with the formulated test compound at a rate of 200 ppm. On the following day, the leaves were inoculated with an aqueous spore suspension of Cochliobolus sativus and the plants were kept in high humidity for one to two days to permit spores to germinate and infect the leaf. The plants were then transferred to a greenhouse until disease developed on untreated control plants. The following table presents the activity of typical compounds of the present invention when evaluated in these experiments. The effectiveness of the test compounds in controlling disease was determined by assessing the severity of disease on treated plants, then converting the severity to percent control based on the level of disease on untreated, inoculated plants.

Colletotricum lagenarium = assay: Cucumber Anthracnose 1-day protectant test (COLLLA); type: in vivo; conditions: Cucumis sativus, topical, 24 h; one-day protectant test, 200 ppm application rate, cucumber plants (variety Bush Champion); read-out: COLLLA control of disease
Procedure: The technical compounds were formulated at 200 ppm in 10 vol. acetone plus 90 vol. Triton X water (deionized water 99.99 wt. % +0.01 wt. Triton X100), giving a “formulated test compound.” The compounds were tested for ability to control plant diseases at the whole plant level in a 1-day protectant test (IDP). Formulated test compounds were applied to plants using a turn table sprayer fitted with two opposing air atomization nozzles which delivered approximately 1500 L/ha of spray volume. Plants were inoculated with spores of the fungus the next day, then incubated in an environment conducive to disease development. Disease severity was evaluated 4 to 19 days later, depending on the speed of disease development. Cucumber Anthracnose (causal agent Colletotricum lagenarium; Bayer code COLLLA): Cucumber plants (variety Bush Champion) were grown from seed in a soilless peat-based potting mixture (Metromix) until the first true leaf was 20-80% expanded. Each pot contained 1 seedling. These plants were sprayed until wet with the formulated test compound at a rate of 200 ppm. On the following day, the leaves were inoculated with an aqueous spore suspension of Colletotricum lagenarium and the plants were kept in high humidity for one day to permit spores to germinate and infect the leaf. The plants were then transferred to a growth chamber until disease developed on untreated control plants. The following table presents the activity of typical compounds of the present invention when evaluated in these experiments. The effectiveness of the test compounds in controlling disease was determined by assessing the severity of disease on treated plants, then converting the severity to percent control based on the level of disease on untreated, inoculated plants.

Septoria tritici = assay: Speckled Leaf Blotch of Wheat 1-day protectant test (SEPTTR); type: in vivo; conditions: Zymoseptoria tritici, topical, 24 h; one-day protectant test, 200 ppm application rate, wheat plants (variety Monon); read-out: SEPTTR control of disease
Procedure: The technical compounds were formulated at 200 ppm in 10 vol. acetone plus 90 vol. Triton X water (deionized water 99.99 wt. % +0.01 wt. Triton X100), giving a “formulated test compound.” The compounds were tested for ability to control plant diseases at the whole plant level in a 1-day protectant test (IDP). Formulated test compounds were applied to plants using a turn table sprayer fitted with two opposing air atomization nozzles which delivered approximately 1500 L/ha of spray volume. Plants were inoculated with spores of the fungus the next day, then incubated in an environment conducive to disease development. Disease severity was evaluated 4 to 19 days later, depending on the speed of disease development. Speckled Leaf Blotch of Wheat (Mycosphaerella graminicola=Septoria tritici; Bayer code […]): Wheat plants (variety Monon) were grown from seed in a greenhouse in 50% pasteurized soil/50% soil-less mix until the first true leaf was fully expanded, with 3-8 seedlings per pot. These plants were sprayed until wet with the formulated test compound at a rate of 200 ppm. On the following day, the leaves were inoculated with an aqueous spore suspension of Septoria tritici and the plants were kept in high humidity (one day in a dark dew chamber followed by four to seven days in a lighted dew chamber) to permit spores to germinate and infect the leaf. The plants were then transferred to a greenhouse until disease developed on untreated control plants. The following table presents the activity of typical compounds of the present invention when evaluated in these experiments. The effectiveness of the test compounds in controlling disease was determined by assessing the severity of disease on treated plants, then converting the severity to percent control based on the level of disease on untreated, inoculated plants.

Pyricularia oryzae = assay: whole plant or invertebrate; type: in vivo; conditions: topical, 24 h, read-out: PYRIOR control of disease
Leptosphaeria nodorum = assay: Glume Blotch of Wheat 1-day protectant test (LEPTNO); type: in vivo; conditions: Parastagonospora nodorum, topical, 24 h; one-day protectant test, 200 ppm application rate, wheat plants (variety Yuma); read-out: LEPTINO control of disease
Procedure: The technical compounds were formulated at 200 ppm in 10 vol. acetone plus 90 vol. Triton X water (deionized water 99.99 wt. % +0.01 wt. Triton X100), giving a “formulated test compound.” The compounds were tested for ability to control plant diseases at the whole plant level in a 1-day protectant test (IDP). Formulated test compounds were applied to plants using a turn table sprayer fitted with two opposing air atomization nozzles which delivered approximately 1500 L/ha of spray volume. Plants were inoculated with spores of the fungus the next day, then incubated in an environment conducive to disease development. Disease severity was evaluated 4 to 19 days later, depending on the speed of disease development. Glume Blotch of Wheat (causal agent Leptosphaeria nodorum=Stagnospora nodorum; Bayer code […]): Wheat plants (variety Yuma) were grown from seed in a 50% pasteurized soil/50% soil-less mix until the seedlings had fully expanded first leaf. Each pot contains 3-20 seedlings. These plants were sprayed until wet with the formulated test compound at a rate of 200 ppm. On the following day, the leaves were inoculated with an aqueous spore suspension of Leptosphaeria nodorum and the plants were kept in high humidity (one day in a dark dew chamber followed by four to seven days in a lighted dew chamber) to permit spores to germinate and infect the leaf. The plants were then transferred to a greenhouse until disease developed on untreated control plants. The following table presents the activity of typical compounds of the present invention when evaluated in these experiments. The effectiveness of the test compounds in controlling disease was determined by assessing the severity of disease on treated plants, then converting the severity to percent control based on the level of disease on untreated, inoculated plants.

Compound | pest or weed control at 200 ppm (Puccinia triticina) [%] | pest or weed control at 200 ppm (Cochliobolus sativus) [%] | pest or weed control at 200 ppm (Colletotricum lagenarium) [%] | pest or weed control at 200 ppm (Septoria tritici) [%] | melting point [°C] | pest or weed control at 200 ppm (Pyricularia oryzae) [%] | pest or weed control at 200 ppm (Leptosphaeria nodorum) [%]
COCC(C)Nc1cc(-c2ncnc(Nc3cccc(Cl)c3)n2)ccn1 (stereo not drawn) [Compound 1, N-(3-chlorophenyl)-4-{2-[(2-methoxy-1-methylethyl)amino]pyridin-4-yl}-1,3,5-triazin-2-amine] | 90 to 100 | 90 to 100 | 90 to 100 | 50 to 89 | 149 to 151 | 90 to 100 | 90 to 100
COC[C@H](C)Nc1cc(-c2ncnc(Nc3cccc(Cl)c3)n2)ccn1 [Compound 2, N-(3-chlorophenyl)-4-(2-{[(1S)-2-methoxy-1-methylethyl]amino}pyridin-4-yl)-1,3,5-triazin-2-amine] | 90 to 100 | 90 to 100 | 90 to 100 | 90 to 100 | 152 to 156 | 90 to 100 | 90 to 100
COCC(C)Nc1cc(-c2ncnc(Nc3ccccc3Cl)n2)ccn1 (stereo not drawn) [Compound 3, N-(2-chlorophenyl)-4-{2-[(2-methoxy-1-methylethyl)amino]pyridin-4-yl}-1,3,5-triazin-2-amine] | 50 to 89 | 90 to 100 | < 20 | 21 to 49 | 139 to 140 | 50 to 89 | 21 to 49
COCC(C)Nc1cc(-c2ncnc(Nc3ccc(Cl)cc3)n2)ccn1 (stereo not drawn) [Compound 4, N-(4-chlorophenyl)-4-{2-[(2-methoxy-1-methylethyl)amino]pyridin-4-yl}-1,3,5-triazin-2-amine] | 50 to 89 | 50 to 89 | < 20 | 50 to 89 | 198 to 200 | < 20 | 50 to 89
CC(C)(C)Nc1cc(-c2ncnc(Nc3cccc(Cl)c3)n2)ccn1 [Compound 5, 4-[2-(tert-butylamino)pyridin-4-yl]-N-(3-chlorophenyl)-1,3,5-triazin-2-amine] | 90 to 100 | 90 to 100 | 50 to 89 | 90 to 100 |  | 90 to 100 | 50 to 89
CC(COCc1ccccc1)Nc1cc(-c2ncnc(Nc3cccc(Cl)c3)n2)ccn1 (stereo not drawn) [Compound 6, N-(3-chlorophenyl)-4-{2-[(2-(benzyloxy)-1-methylethyl)amino]pyridin-4-yl}-1,3,5-triazin-2-amine] | 90 to 100 | 50 to 89 | < 20 | 90 to 100 | 79 to 80 | < 20 | 50 to 89
Clc1cccc(Nc2ncnc(-c3ccnc(N4CCCCC4)c3)n2)c1 [Compound 7, N-(3-chlorophenyl)-4-(2-piperidin-1-ylpyridin-4-yl)-1,3,5-triazin-2-amine] | 21 to 49 | 21 to 49 | < 20 | 50 to 89 | 168 to 169 | < 20 | 50 to 89
Clc1ccc(Nc2ncnc(-c3ccnc(N4CCCCC4)c3)n2)cc1 [Compound 8, N-(4-chlorophenyl)-4-(2-piperidin-1-ylpyridin-4-yl)-1,3,5-triazin-2-amine] | < 20 | < 20 | < 20 | 50 to 89 |  | < 20 | 50 to 89
CC1COC(=O)N1c1cc(-c2ncnc(Nc3cccc(Cl)c3)n2)ccn1 (stereo not drawn) [Compound 9] | 90 to 100 | 90 to 100 | 21 to 49 | 50 to 89 |  | 90 to 100 | 50 to 89

Reference: patent publication US20050130968A1, “Fungicidal 4-(2-aminopyridin-4-yl)-N-phenyl-1,3,5-triazin-2-amine derivatives” (priority 2003, published 2005)
